Measurements taken from patent US12274689B2, “Compound for the management of feline diabetes” (INCREVET, INC., priority 2019, dated 2025).

Assays:
healthy cats = test: 21-day high-dose study in healthy cats (study 3); assay type: in vivo, cat; settings: 15 mg kg^−1 bid (30 mg kg^−1 day^−1) for 21 days
From the text: All cats regained weight when the dosing ended. Because diabetic cats are often presented as a result of weight loss, the degree of […] would clearly be adverse and incompatible with treatment.

human SGLT2 = target: T1, human SGLT2 (Homo sapiens, UniProt P31639); test: selectivity for human SGLT2 compared to human SGLT1
T1 sequence (P31639 1-672): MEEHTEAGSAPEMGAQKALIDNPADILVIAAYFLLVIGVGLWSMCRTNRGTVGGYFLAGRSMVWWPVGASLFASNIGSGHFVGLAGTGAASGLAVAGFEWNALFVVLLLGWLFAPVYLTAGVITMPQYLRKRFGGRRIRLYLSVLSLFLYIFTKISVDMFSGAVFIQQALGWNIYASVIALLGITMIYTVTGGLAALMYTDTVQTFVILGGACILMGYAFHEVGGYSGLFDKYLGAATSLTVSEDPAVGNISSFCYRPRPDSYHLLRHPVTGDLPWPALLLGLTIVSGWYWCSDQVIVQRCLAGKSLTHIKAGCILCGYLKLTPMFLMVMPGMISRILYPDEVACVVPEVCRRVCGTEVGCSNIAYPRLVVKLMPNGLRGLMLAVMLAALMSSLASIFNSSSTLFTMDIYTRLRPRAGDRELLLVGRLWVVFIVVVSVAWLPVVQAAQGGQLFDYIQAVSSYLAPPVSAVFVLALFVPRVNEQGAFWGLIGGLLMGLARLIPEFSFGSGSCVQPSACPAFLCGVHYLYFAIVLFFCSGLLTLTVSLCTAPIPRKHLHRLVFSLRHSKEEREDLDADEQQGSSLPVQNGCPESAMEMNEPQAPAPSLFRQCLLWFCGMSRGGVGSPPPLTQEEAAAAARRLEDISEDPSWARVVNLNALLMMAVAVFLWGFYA

[1] = system: client-owned cats diagnosed with diabetes mellitus; test: field effectiveness study in client-owned diabetic cats; assay type: in vivo, cat; set-up: mean serum glucose: unit: mg/dL
Protocol: In a field effectiveness study, client-owned cats that had been diagnosed with diabetes mellitus based on: i) two separate fasting (≥6 h) blood glucose measurements>250 mg dL^−1; ii) glucosuria; iii) fructosamine>450 μmol L^−1 (subsequently changed to >360 μmol L^−1 due to a change in the testing laboratory methodology), and iv) one or more of the following: polyuria/polydipsia, polyphagia and/or weight loss (documented in the cat's medical records) were enrolled. Cats with suspected diabetes mellitus were evaluated during visit 1 (within 7 days prior to day 0). […] Cats were prescribed a diet for diabetic animals (Purina DM, either dry or wet variety). Cats were returned to the clinic for evaluation of glycemic control during visits 3 (day 14±3), 4 (day 28±3), and 5 (day 56±3). The treatment period was from visit 2 (day 0) through visit 5 (day 56±3). A cat could have been brought back to the clinic at any time for unscheduled visits if such visits were determined to be necessary by the owner or investigator. Eight-hour blood glucose curves (blood samples collected every 2 h±15 min for 8 h) were conducted at every visit starting with visit 2 (day 0) and blood glucose was measured using an AlphaTRAK 2 glucometer (Abbott Laboratories). Blood samples for hematology and serum chemistry were collected at screening and during each scheduled visit after initiation of dosing. A central laboratory was used to evaluate all clinical pathology samples (blood, serum, and urine) that are not analyzed in the clinic for blood glucose curves.
Serum chemistries included assessment of fructosamine. […] To accommodate the change in reference range, data were harmonized by expression as a percentage of the upper limit of normal and log-transformed percentages were analyzed by repeated measures ANCOVA with an unstructured covariance and visit as a fixed effect. The upper limit of normal for the testing laboratory for fasting serum glucose was 155 mg dL^−1. The data below were tabulated after 32 cats completed the day 56 visit.
Each cat was classified as having achieved (or not achieved) glycemic control on Day 56±3 (success/failure). Treatment success was defined as improvement of at least one blood glucose variable (BG mean<250 mg dL^−1; or fructosamine<450 μmol/L or <360 μmol/L, depending on the assay reference range at the time of the analysis), and the veterinarian's assessment of adequate glycemic control at the final evaluation. All cats that remained on-study to V5 were considered treatment successes. Of the 8 cats that were considered treatment failures, 6 cats were removed from the study following an SAE, 1 cat was removed at the sponsor's request, and 1 cat was removed due to the use of a study-proscribed medication to treat an AE. Table 3 also tallies the cats achieving a fructosamine concentration less than the upper limit of normal (356 μmol L^−1 initially and 275 μmol L^−1 subsequently).
Responsibility for assessing clinical signs of diabetes mellitus was divided between owners and treating veterinarians. Weight was recorded at each visit by the veterinarian, and the signs of polydipsia, polyuria and polyphagia were recorded at each visit by the owner, using a four-point (0 to 3) integer score in which low scores represented favorable ratings.
In addition to providing a measure of the status of the cat as a function of time, the quantitative assessments were used to produce a binary outcome of success or failure at study completion. To score as a success by weight, the weight at Visit 5 was to exceed the weight at Visit 2 (treatment initiation). To score as success by the other signs the owner score at visit 5 was to be less than the owner score at Visit 2.
Glucose curves were constructed by glucometer measurement of blood sampled at hours 0, 2, 4, 6 and 8 post-dose. […]

[2] = by visit, non-parametric test highly significant

OC[C@H]1O[C@@H](c2ccc(Cl)c(Cc3ccc(OCCOC4CC4)cc3)c2)[C@H](O)[C@@H](O)[C@@H]1O [bexagliflozin, (2S,3R,4R,5S,6R)-2-(4-chloro-3-(4-(2-cyclopropoxyethoxy)benzyl)phenyl)-6-(hydroxymethyl)tetrahydro-2H-pyran-3,4,5-triol]
body weight (healthy cats): cats lost weight throughout the study
selectivity for human SGLT2 compared to human SGLT1 (human SGLT2): 2400 fold
treatment effect on the gain in body mass per cat ([1]; baseline to week 8, p<0.0001): highly significant
cats that either maintained or increased their weight ([1]; by day 56): 82%
mean owner scores for polydipsia [1, 2]: declined
mean owner scores for polyuria [1, 2]: declined
mean owner scores for polyphagia ([1]; by visit, non-parametric test significant): declined
weight of case 5 at study end ([1]; case 5, decreased from 5.4 kg): 5.1 kg
treatment outcome of cats with IGF-1 above the upper limit of normal (92 nmol/L) ([1]; cases 7, 28 and 30, V5): All three cases were considered treatment successes
symptomatic hypoglycemia ([1]; diabetic cats, field study): None of the cats exhibited a symptomatic hypoglycemia
Veterinarian Glycemic Control Criteria Met ([1]; individual cats, V5): Yes
Mean BG Criteria Met ([1]; individual cats, V5, BG mean <250 mg dL^−1): Yes
cats removed from the study following an SAE ([1]; of 40 cats enrolled): 6 cats
Any Success, Col Sum (number of cats) ([1]; of 40 enrolled cats): 31
Non-Weight Success, Col Sum (number of cats) ([1]; of 40 enrolled cats): 30
Polydipsia Success, Col Sum (number of cats) ([1]; of 40 enrolled cats): 23
Polyphagia Success, Col Sum (number of cats) ([1]; of 40 enrolled cats): 17
Polyuria Success, Col Sum (number of cats) ([1]; of 40 enrolled cats): 24
Weight Success, Col Sum (number of cats) ([1]; of 40 enrolled cats): 22
cats achieving a fructosamine concentration below the upper limit of normal ([1]; of the 32 cats completing the study): 26 cats
average cat weight ([1]; over the course of the study): increased
cats considered treatment successes ([1]; thirty-two of the 40 cats enrolled, Day 56±3): 80%
fructosamine of cats with elevated IGF-1 ([1]; three cats with elevated serum IGF-1): achieved a normal fructosamine concentration
mean serum β-hydroxybutyrate concentration ([1]; week 8, 95% CI 1.40, 2.20, upper limit of normal 1.9 mg dL^−1): 1.76 mg/dL
mean serum fructosamine, % of the upper limit of normal ([1]; week 8, 95% CI 80.0%, […]): 86.7%
mean serum glucose ([1]; week 8, 95% CI 127, 163): 144
mean of the five blood glucose determinations ([1]; week 8, in-clinic blood glucose curve, 95% CI 102.8, 128.4): 114.9 mg/dL
